Measured values from patent publication US4062934A, “X-ray contrast media” (Laboratoires Andre Guerbet, priority 1975, dated 1977).

Tests used:
[1] = Neurotoxicity, intra-cisternal injection in rats (technique according to E. Melartin); details: in vivo, at 50 mg I/rat, read-out: Neurotoxicity: death rate, intra-cisternal injection in rats
Excerpt: *Technique according to E. Melartin (Investigative Radiology, 1970, 5, 1,

[2] = Osmolality of aqueous solutions containing 28% iodine; format: physicochemical; details: aqueous solution
[3] = system: mice; test: LD50, I.V., in mice; format: in vivo; details: aqueous solution containing 28% iodine
[4] = Viscosity of aqueous solution; format: physicochemical; details: 25 g iodine per 100 ml, 37° C
Method: The product is dissolved in water at a concentration of 25 g iodine per 100 ml. The solution has a viscosity of 7.4 centipoises at 37° C.

[5] = Neurotoxicity, intra-cerebral injection in mice (technique according to Haley and MacCornick); details: mouse, in vivo, 700 mg/kg, at 700 mg I/kg, read-out: Neurotoxicity: death rate, intra-cerebral injection in mice
Excerpt: **Technique according to Haley and MacCornick (British Journal

Structure (SMILES) | mortality [1] [%] | Osmolality [2] [mosm/kg] | LD50, I.V., in mice [3] [g I/kg] | viscosity [4] [centipoises] | mortality [5] [%]
CC(=O)N(C)c1c(I)c(NC(=O)[C@H](O)[C@@H](O)[C@H](O)[C@H](O)CO)c(I)c(C(=O)NCCNC(=O)c2c(I)c(NC(=O)[C@H](O)[C@@H](O)[C@H](O)[C@H](O)CO)c(I)c(N(C)C(C)=O)c2I)c1I [I, 1,2-N,N'-bis(2,4,6-triiodo-3-N-methyl-N-acetylamino-5-N-gluconylamino-benzoyl)-diamino-ethane] | 0 | 200 | 15 | 7.4 | 0
CC(=O)N(C)c1c(I)c(NC(=O)[C@H](O)[C@@H](O)[C@H](O)[C@H](O)CO)c(I)c(C(=O)NNC(=O)c2c(I)c(NC(=O)[C@H](O)[C@@H](O)[C@H](O)[C@H](O)CO)c(I)c(N(C)C(C)=O)c2I)c1I [II, N,N'-bis(2,4,6-triiodo-3-N-methyl-N-acetylamino-5-N-gluconylamino-benzoyl)hydrazide] | – | 204 | 6 | – | –
CC(=O)N(C)c1c(I)c(NC(=O)[C@H](O)[C@@H](O)[C@H](O)[C@H](O)CO)c(I)c(C(=O)N(C)N(C)C(=O)c2c(I)c(NC(=O)[C@H](O)[C@@H](O)[C@H](O)[C@H](O)CO)c(I)c(N(C)C(C)=O)c2I)c1I [III, N,N'-bis(2,4,6-triiodo-3-N-methyl-N-acetylamino-5-N-gluconylamino-benzoyl)dimethyl hydrazide] | – | 140 | 9 | – | –
